Measured values taken from paper PMC5478869, “New Hydroxycinnamic Acid Esters as Novel 5-Lipoxygenase Inhibitors That Affect Leukotriene Biosynthesis” (Mediators of Inflammation, 2017).

Assays:
arachidonic acid release = experiment: Arachidonic acid release from thapsigargin-stimulated PMNL (GC-MS); type: cell-based, human; settings: 1 μM compound, 1 μM thapsigargin 5 min, vs control (0.5% DMSO)
Procedure: Quantification of arachidonic acid release from cellular membranes was performed as previously described. Briefly, freshly isolated PMNL (10^7 cells/ml, in HBSS containing 1.6 mM CaCl2 and 0.1% BSA) were incubated with adenosine deaminase (0.3 U/ml) and test compounds for 5 min at 37°C. Stimulation was initiated with the addition of 1 μM thapsigargin, followed by incubation at 37°C for 5 min. The reactions were stopped with the addition of two volumes of cold MeOH and 300 ng of arachidonic acid-d8 (Cayman Chemicals) as internal standard. The samples were stored at −20°C overnight and then centrifuged the next day at 1000 g for 10 min. The supernatants were diluted with four volumes of acidified water (0.1%) then processed on an octadecyl (C18) column. Samples were eluted with the addition of 3 ml of MeOH and dried under nitrogen. Pentafluorobenzylesters were prepared with the addition 50 μl N,N-diisopropylethylamine (20% in acetonitrile) and 50 μl of […] (20% in acetonitrile). Samples were heated for 40 min at 40°C, then dried under nitrogen and resuspended in 100 μl of hexane. Samples were quantified by negative ion chemical ionization gas chromatography/mass spectrometry using TraceGC ultra column (Thermo) and a Polaris Q mass spectrometer (Thermo).
Figure 4 The impact of test compounds on the liberation of arachidonic acid in stimulated PMNL. Human PMNL were incubated with test compounds (1 μM) or their diluent (control, DMSO 0.5%) for 5 min. Stimulation was then initiated with the addition of 1 μM thapsigargin, followed by an incubation at 37°C for 5 min. The reactions were stopped with the addition of two volumes of cold MeOH and 300 ng of arachidonic acid-d8, then samples were stored overnight at −20°C. Free arachidonic acid was first extracted on octadecyl columns, then pentafluorobenzylesters of arachidonic acid were prepared and samples were measured on GC-MS. Spontaneous release of AA was also measured in absence of thapsigargin (nonactivated, NA). ^∗Different from control as determined by one-way ANOVA with Dunnett's multiple comparison test (p < 0.05). Data are expressed as means ± SEM of at least 3 independent experiments.

[1] = target: T1, platelet 12-lipoxygenase (12-LO) (Homo sapiens, UniProt P18054); experiment: Platelet activation (A23187), biosynthesis of 12-HETE; type: cell-based; settings: 10 μM A23187 5 min
T1 construct: endogenous in cells; host or cells: platelets isolated from platelet-rich plasma
T1 sequence (P18054 1-663): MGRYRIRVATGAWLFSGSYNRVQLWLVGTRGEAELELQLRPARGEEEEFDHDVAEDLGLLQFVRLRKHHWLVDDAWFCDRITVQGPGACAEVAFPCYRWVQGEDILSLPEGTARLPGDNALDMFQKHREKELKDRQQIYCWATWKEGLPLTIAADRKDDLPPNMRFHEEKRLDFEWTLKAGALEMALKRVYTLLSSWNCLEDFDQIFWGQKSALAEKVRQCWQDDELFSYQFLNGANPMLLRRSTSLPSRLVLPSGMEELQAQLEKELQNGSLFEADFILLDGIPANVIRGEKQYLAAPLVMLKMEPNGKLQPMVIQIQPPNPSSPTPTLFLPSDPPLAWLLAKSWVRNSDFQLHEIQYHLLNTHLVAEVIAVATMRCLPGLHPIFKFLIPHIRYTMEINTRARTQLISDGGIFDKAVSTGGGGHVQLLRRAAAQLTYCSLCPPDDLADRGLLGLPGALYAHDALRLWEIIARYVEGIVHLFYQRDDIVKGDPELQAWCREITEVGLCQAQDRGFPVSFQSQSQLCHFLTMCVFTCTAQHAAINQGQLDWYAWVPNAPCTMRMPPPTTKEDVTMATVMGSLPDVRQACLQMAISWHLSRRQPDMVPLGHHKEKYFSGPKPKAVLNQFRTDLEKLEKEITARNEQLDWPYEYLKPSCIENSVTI
Procedure: Polymorphonuclear leukocytes (PMNL) were isolated as previously described. Briefly, whole blood was collected (with anticoagulant citrate dextrose (ACD)) and then centrifuged at 500 g for 10 min. Platelet-rich plasma (PRP) was set aside for platelet isolation (see below), and erythrocytes were removed by dextran sedimentation. After a centrifugation step at 900 g × 20 min at room temperature on a lymphocyte separation medium cushion (density, 1.077 g/ml) (Wisent), PMNL were obtained (>96%) followed by hypotonic lysis of the remaining erythrocytes. PMNL were counted and resuspended at 10^7 cells/ml in HBSS supplemented with 1.6 mM CaCl2. PRP was processed as previously described for platelet isolation. Briefly, PRP was centrifuged at 400 g for 2 min at room temperature to remove the remaining erythrocytes. The supernatant was then centrifuged at 1300g for 10 min to pellet platelets. Cells were resuspended in Tyrode Buffer pH 7.4 (134 mM NaCl, 2.9 mM KCl, 0.34 mM Na2HPO4, 12 mM NaHCO3, 20 mM HEPES, 1 mM MgCl2, 5 mM glucose, and 0.5 mg/ml BSA) at 3 × 10^8 cells/ml in the presence of 5 mM CaCl2.
Platelets (3 × 10^8 cells/ml) were preincubated with various test compounds at indicated concentrations for 5 min at 37°C. Platelet activation was initiated with the addition of 10 μM of calcium ionophore A23187 (Sigma-Aldrich) followed by a 5 min incubation time at 37°C. Reactions were stopped with the addition of two volumes of cold MeOH:MeCN (1 : 1) containing PGB2 (100 ng/ml) as internal standard. Samples were stored overnight at −20°C and were then centrifuged, the supernatant was dried under nitrogen, and the samples were resuspended in 30% methanol and analyzed by RP-HPLC as indicated above.
Figure 5 The inhibitory effects of the test compounds of the biosynthesis of 5-LO products in stimulated whole blood (a) and the biosynthesis of 12-lipoxygenase products in platelets (b). (a) Whole blood was incubated in presence of various compounds (1 μM and 5 μM) or with their diluent (control, DMSO 0.5%) for 5 min, then stimulated with opsonized zymosan (5 mg/ml) for 30 min at 37°C. Blood was then centrifuged and plasma was collected and added to 3.5 volumes of MeOH:CH3CN (1 : 1). Samples were processed for analysis by RP-HPLC for total 5-LO products quantification. Total 5-LO products measured represent the sum of LTB4, its trans isomers, 20-COOH and 20-OH-LTB4, and 5-hydroxyeicosatetraenoic acid. (b) Platelets were incubated for 5 min in presence of test compounds (1 μM and 3 μM) then biosynthesis of 12-HETE was initiated with the addition of 10 μM of calcium ionophore A23187. Reactions were stopped with the addition of two volumes of MeOH:MeCN (1 : 1 v/v). Samples were processed for analysis by RP-HPLC for 12-hydroxyeicosatetraenoic acid (12-HETE) quantification. ^∗Different from control as determined by one-way ANOVA with Dunnett's multiple comparison test (p < 0.05). Data are expressed as means ± SEM of at least 3 independent experiments.
Having identified compounds that inhibit the biosynthesis of lipid mediators generated via the 5-LO pathway, their ability to inhibit platelet 12-lipoxygenase (12-LO) was assessed to determine whether they show specificity.

| Structure (SMILES) | Inhibition of cellular arachidonic acid release in stimulated PMNL (arachidonic acid release) | Inhibition of biosynthesis of 12-HETE in platelets ([1]; 1 μM compound) | Inhibition of biosynthesis of 12-HETE in platelets ([1]; 3 μM compound) |
| --- | --- | --- | --- |
| O=C(/C=C/c1ccc(O)c(O)c1)OCCc1ccccc1 [CAPE (2), Caffeic acid phenethyl ester, reference compound] | significantly inhibited cellular arachidonic acid release | significantly inhibited the biosynthesis of 12-HETE | near-complete inhibition |
| C=C(C)CCOC(=O)/C=C/c1ccc(O)c(O)c1 [Compound 9] | significantly inhibited cellular arachidonic acid release | significantly inhibited the biosynthesis of 12-HETE | near-complete inhibition |
| O=C(/C=C/c1ccc(O)c(O)c1)OCCCc1ccccc1 [Compound 13] | significantly inhibited cellular arachidonic acid release | significantly inhibited the biosynthesis of 12-HETE | near-complete inhibition |
| O=C(/C=C/c1ccc(O)c(O)c1)OCCc1ccc(F)cc1 [Compound 14] | failed to significantly inhibit the release of cellular membrane arachidonic acid | significantly inhibited the biosynthesis of 12-HETE | near-complete inhibition |
| Cc1ccc(CCOC(=O)/C=C/c2ccc(O)c(O)c2)cc1 [Compound 15] | failed to significantly inhibit the release of cellular membrane arachidonic acid | significantly inhibited the biosynthesis of 12-HETE | near-complete inhibition |
| COc1ccc(CCOC(=O)/C=C/c2ccc(O)c(O)c2)cc1 [Compound 16] | failed to significantly inhibit the release of cellular membrane arachidonic acid | failed to significantly affect the biosynthesis of 12-HETE | significant inhibition |
| O=C(/C=C/c1ccc(O)c(O)c1)OCC(c1ccccc1)c1ccccc1 [Compound 19] | significantly inhibited cellular arachidonic acid release | failed to significantly affect the biosynthesis of 12-HETE | significant inhibition |
